Active and inactive are the calls of the source.
Assays:
[1] = target: T1, E3 ubiquitin-protein ligase XIAP (Homo sapiens, UniProt P98170); assay: Counter Screen using XIAP-Bir3 for Chemical Antagonists of Bir1/2 domains of IAP-family anti-apoptotic proteins. [Related pubchem assays (depositor defined):AID1018, AID1449, AID1514, AID1638, AID1749, AID1750, AID488957, AID488963]
[2] = target: T1, E3 ubiquitin-protein ligase XIAP; assay: small molecules displacing peptide from XIAP – biochemical, IAP family, fluorescence polarization (AID 1018); assay type: functional
[3] = HPDE-C7 pancreatic duct cell viability loss – fluorescence, HTS (AID 430); assay type: functional, cell-based; conditions: Homo sapiens
[4] = viability loss of HPDE-C7K cells – cell-based, fluorescence, HTS, primary screen (AID 431); assay type: functional; conditions: Homo sapiens
[5] = target: Cytochrome P450 2C9 (Homo sapiens, UniProt P11712)
[6] = target: DNA dC->dU-editing enzyme APOBEC-3A (Homo sapiens, UniProt P31941); assay: A3A deaminase inhibition for selectivity – biochemical, dose response (AID 504722); assay type: functional
[7] = target: DNA dC->dU-editing enzyme APOBEC-3G (Homo sapiens, UniProt Q9HC16); assay: Dose Response confirmation of small molecule APOBEC3G DNA Deaminase Inhibitors via a fluorescence-based single-stranded DNA deaminase assay. [Related pubchem assays (depositor defined):AID493012, AID493028]; assay type: functional
[8] = A Cell Based Secondary Assay To Explore Cytotoxicity of Compounds that Sensitize Mycobacterium Tuberculosis to Beta-Lactam Antibiotics.; assay type: functional
[9] = THP-1 cell cytotoxicity, dose response, cytotoxicity control for non-replicating M. tuberculosis project (AID 489025); assay type: functional
[10] = Vero E6 cell cytotoxicity, dose response, cytotoxicity control for non-replicating M. tuberculosis project, secondary assay (AID 492998); assay type: functional, VeroE6; conditions: Vero C1008
[11] = cells; assay type: functional
[12] = target: SUMO-activating enzyme (Homo sapiens, UniProt Q9UBT2); assay: blockers of UBC9-mediated SUMO conjugation – biochemical, AlphaScreen, SUMOylation inhibitor project, confirmation (AID 2018); assay type: functional
[13] = M. tuberculosis H37Rv growth inhibitors, H37Rv strain (AID 1626); assay type: functional
[14] = target: T2, Replicative DNA helicase DnaB (Mycobacterium tuberculosis, UniProt P9WMR3); assay: DnaB intein splicing inhibitors, dose response, biochemical, cell-free fluorescence (AID 449749); assay type: functional
T2 sequence (P9WMR3 whole entry): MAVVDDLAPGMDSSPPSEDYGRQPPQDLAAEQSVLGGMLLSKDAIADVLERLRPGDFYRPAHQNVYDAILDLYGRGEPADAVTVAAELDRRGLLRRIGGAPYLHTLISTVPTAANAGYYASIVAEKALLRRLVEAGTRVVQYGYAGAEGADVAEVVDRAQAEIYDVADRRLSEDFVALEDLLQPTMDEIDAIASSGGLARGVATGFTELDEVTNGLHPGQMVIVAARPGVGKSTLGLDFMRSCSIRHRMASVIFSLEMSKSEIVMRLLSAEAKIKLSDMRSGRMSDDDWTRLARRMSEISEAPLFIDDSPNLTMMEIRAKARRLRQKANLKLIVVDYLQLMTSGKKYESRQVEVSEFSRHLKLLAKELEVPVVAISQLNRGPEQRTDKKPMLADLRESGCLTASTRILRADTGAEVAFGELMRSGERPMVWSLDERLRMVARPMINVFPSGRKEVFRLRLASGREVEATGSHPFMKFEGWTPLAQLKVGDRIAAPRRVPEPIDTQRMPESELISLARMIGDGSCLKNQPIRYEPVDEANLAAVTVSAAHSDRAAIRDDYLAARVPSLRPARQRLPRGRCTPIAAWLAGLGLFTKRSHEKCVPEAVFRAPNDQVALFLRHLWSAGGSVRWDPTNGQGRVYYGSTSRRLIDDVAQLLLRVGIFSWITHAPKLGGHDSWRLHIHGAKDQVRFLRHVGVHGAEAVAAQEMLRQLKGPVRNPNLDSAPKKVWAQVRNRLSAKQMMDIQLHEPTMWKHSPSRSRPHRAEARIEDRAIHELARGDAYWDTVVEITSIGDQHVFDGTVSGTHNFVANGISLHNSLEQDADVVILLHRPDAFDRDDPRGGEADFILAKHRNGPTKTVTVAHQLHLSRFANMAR

[15] = target: T3, Protein RecA (Mycobacterium tuberculosis, UniProt P9WHJ3); assay: Fluorescence Cell-Free Homogeneous Dose Retest to Identify Inhibitors of RecA-Intein Splicing Activity. [Related pubchem assays (depositor defined):AID2097, AID2223, AID489010, AID492950]; assay type: functional
T3 sequence (P9WHJ3 whole entry): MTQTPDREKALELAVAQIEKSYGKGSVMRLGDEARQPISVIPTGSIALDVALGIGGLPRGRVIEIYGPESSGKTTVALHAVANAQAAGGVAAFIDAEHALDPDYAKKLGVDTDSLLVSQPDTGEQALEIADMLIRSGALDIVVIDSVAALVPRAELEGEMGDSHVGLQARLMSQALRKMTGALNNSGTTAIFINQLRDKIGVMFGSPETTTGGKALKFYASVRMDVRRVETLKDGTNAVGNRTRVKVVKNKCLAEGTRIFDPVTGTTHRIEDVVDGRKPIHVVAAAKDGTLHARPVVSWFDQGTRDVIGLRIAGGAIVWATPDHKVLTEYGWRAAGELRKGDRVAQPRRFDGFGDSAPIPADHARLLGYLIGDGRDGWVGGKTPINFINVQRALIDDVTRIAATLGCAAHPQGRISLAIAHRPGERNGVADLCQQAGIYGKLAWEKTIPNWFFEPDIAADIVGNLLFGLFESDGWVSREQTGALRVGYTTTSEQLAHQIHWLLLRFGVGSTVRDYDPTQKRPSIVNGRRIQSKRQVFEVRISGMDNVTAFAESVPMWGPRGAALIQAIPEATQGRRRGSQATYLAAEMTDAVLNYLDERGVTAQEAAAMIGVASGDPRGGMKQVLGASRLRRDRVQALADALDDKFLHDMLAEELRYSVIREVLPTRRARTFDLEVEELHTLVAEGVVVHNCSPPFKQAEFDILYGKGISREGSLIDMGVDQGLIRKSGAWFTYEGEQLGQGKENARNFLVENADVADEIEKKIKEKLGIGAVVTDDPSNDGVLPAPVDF

[16] = tested on: Streptococcus sp. 'group A'; assay: Streptococcus pyogenes SK(-)GAS viability under kanamycin – luminescence, BacTiterGlo, confirmation, counter-screen for streptokinase expression inhibitor project, dose response (AID 1900); assay type: functional, organism-based
[17] = target: Large T antigen (Simian virus 40, UniProt P03070); assay type: functional, Betapolyomavirus macacae;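 also: Confirmatory-stage PubChem screen for compounds that inhibit SV40 T antigen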
[18] = tested on: Streptococcus; assay: GAS UMAA2166 growth inhibition – luminescence, BacTiterGlo, counter-screen for streptokinase expression inhibitor project, dose response (AID 1915); assay type: functional, organism-based;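 also: potency for reduction of bacterial viability or growth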
[19] = target: T4, Hexokinase HKDC1 (Homo sapiens, UniProt Q2TB90); assay: inhibition of HKDC1 glucose phosphorylation – biochemical, W721R variant, dose response (AID 504729); assay type: functional
T4 sequence (Q2TB90 whole entry): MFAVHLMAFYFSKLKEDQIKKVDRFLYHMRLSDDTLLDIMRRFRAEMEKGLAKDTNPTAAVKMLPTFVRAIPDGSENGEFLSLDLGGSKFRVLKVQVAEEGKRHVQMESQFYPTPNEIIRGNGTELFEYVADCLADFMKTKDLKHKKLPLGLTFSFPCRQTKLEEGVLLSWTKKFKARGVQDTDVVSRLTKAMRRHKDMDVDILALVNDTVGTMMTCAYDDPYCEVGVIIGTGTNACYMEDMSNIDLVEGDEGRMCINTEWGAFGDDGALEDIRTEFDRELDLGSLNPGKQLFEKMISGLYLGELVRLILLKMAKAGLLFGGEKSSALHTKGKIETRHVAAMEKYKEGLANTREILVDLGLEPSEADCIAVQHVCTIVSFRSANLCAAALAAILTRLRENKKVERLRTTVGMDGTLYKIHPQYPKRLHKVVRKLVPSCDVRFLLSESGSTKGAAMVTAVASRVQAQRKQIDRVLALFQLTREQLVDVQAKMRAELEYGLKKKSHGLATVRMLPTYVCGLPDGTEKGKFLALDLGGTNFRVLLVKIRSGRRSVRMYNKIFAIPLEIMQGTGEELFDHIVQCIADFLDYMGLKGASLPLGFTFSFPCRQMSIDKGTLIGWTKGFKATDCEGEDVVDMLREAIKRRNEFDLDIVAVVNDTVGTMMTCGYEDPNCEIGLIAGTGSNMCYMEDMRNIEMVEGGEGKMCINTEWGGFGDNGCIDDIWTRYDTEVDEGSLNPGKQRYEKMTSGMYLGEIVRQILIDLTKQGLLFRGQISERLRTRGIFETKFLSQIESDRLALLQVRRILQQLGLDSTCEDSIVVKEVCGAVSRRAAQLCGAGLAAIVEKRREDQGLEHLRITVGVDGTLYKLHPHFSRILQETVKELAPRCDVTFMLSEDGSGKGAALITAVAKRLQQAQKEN

[20] = target: T5, fMet-Leu-Phe receptor (Homo sapiens, UniProt P21462); assay: formyl peptide receptor binders – dose response (AID 519); assay type: functional
T5 sequence (P21462 whole entry): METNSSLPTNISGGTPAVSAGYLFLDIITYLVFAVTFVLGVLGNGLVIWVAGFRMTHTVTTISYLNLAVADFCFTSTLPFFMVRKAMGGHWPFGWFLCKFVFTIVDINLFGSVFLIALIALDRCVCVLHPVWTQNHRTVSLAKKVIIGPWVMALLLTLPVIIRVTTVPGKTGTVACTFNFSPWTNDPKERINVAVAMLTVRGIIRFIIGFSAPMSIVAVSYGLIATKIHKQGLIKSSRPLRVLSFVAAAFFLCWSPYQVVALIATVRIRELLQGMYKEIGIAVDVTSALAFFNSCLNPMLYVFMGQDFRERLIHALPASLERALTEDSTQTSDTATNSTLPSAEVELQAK

Chain of DNA dC->dU-editing enzyme APOBEC-3G (Q9HC16 whole entry): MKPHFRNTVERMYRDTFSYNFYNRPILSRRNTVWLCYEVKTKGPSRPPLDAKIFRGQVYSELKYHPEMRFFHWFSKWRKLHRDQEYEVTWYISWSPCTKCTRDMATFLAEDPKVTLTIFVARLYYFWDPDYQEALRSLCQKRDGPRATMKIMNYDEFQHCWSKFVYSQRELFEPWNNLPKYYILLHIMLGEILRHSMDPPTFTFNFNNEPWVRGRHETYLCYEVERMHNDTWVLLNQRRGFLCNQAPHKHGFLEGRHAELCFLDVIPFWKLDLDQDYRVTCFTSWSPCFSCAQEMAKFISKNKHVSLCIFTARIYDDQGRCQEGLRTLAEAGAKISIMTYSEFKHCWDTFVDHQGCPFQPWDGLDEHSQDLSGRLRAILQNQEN
T1 sequence (P98170 whole entry): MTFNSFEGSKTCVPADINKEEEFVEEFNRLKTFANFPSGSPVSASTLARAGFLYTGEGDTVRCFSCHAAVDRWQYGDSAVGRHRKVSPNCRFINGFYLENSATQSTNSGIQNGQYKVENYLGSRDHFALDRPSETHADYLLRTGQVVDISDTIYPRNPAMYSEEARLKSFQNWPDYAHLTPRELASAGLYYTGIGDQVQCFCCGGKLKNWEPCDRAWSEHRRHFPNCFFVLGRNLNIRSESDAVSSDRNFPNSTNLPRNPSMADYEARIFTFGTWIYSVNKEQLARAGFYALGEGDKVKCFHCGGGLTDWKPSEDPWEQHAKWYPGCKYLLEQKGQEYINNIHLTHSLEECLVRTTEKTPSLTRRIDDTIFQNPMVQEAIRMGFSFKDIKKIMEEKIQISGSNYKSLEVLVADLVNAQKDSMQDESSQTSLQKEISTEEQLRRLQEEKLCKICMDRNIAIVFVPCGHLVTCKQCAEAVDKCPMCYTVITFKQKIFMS
Chain of DNA dC->dU-editing enzyme APOBEC-3A (P31941 whole entry): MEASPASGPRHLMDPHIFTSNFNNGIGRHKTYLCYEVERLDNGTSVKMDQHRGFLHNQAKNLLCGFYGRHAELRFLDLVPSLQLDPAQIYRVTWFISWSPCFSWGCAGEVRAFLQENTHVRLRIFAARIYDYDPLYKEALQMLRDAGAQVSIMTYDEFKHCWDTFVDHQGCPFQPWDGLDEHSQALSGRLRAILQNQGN
Chain of SUMO-activating enzyme (Q9UBE0 whole entry): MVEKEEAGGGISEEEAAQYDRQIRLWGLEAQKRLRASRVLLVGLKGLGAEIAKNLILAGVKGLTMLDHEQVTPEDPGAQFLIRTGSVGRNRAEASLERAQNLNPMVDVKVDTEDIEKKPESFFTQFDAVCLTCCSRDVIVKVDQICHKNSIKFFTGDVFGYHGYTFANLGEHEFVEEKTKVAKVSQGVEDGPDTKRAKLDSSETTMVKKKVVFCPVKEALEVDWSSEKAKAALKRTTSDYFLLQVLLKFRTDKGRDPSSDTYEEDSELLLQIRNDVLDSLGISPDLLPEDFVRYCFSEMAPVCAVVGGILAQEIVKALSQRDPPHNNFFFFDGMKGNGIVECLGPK
Chain of SUMO-activating enzyme (Q9UBT2 whole entry): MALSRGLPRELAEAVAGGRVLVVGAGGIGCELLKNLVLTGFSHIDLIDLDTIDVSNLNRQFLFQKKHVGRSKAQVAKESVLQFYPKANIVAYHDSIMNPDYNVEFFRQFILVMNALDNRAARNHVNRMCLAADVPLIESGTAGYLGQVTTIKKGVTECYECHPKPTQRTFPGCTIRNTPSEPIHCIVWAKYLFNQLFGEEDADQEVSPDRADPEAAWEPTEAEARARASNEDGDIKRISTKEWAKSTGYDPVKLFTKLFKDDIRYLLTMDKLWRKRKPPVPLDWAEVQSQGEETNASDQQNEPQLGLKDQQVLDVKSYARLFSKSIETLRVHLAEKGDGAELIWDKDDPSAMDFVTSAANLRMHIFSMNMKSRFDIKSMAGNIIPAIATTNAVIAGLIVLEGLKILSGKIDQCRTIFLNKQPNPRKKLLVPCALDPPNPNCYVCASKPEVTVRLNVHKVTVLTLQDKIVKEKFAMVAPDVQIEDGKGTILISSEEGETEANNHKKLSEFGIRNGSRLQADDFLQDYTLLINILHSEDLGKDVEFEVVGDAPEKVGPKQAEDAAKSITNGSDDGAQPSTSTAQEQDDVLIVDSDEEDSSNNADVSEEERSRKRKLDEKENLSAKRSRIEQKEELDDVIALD
Chain of Cytochrome P450 2C9 (P11712 whole entry): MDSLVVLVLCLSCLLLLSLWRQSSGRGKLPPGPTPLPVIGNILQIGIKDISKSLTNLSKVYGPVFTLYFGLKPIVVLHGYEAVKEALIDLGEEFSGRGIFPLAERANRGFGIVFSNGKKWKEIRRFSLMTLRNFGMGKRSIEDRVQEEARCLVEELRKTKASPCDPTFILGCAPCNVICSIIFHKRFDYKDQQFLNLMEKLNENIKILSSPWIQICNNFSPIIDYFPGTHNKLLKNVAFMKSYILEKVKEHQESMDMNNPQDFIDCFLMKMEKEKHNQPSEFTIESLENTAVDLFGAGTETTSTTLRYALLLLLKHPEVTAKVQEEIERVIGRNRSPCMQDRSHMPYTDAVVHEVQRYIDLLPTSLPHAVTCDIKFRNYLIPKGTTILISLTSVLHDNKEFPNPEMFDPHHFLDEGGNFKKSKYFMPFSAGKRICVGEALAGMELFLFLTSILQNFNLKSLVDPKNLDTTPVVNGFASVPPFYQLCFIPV
Chain of Large T antigen (P03070 whole entry): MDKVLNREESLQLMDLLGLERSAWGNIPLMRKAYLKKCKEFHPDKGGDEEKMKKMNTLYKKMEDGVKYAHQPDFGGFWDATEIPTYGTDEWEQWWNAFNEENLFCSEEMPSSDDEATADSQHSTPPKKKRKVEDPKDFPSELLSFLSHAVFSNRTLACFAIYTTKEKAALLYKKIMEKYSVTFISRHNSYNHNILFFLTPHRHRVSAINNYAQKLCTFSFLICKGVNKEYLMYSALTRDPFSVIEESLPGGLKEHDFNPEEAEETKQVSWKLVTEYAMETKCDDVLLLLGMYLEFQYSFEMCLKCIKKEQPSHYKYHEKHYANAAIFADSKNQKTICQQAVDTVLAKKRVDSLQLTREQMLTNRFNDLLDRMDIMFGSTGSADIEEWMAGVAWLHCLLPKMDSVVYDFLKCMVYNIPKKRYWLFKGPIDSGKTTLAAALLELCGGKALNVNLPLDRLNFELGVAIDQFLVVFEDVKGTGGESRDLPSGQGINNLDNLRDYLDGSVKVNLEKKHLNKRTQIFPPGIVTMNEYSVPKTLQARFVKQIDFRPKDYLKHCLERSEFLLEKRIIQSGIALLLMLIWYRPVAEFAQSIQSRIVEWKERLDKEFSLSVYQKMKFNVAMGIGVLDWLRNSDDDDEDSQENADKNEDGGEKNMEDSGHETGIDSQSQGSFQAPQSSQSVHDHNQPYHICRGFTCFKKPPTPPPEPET

In the case of `COCCn1nnnc1C(C(C)C)N(Cc1ccccc1)Cc1cc2cc(OC)ccc2nc1O` (centres undefined), the IC50 [1] is reported as > 100 µM (inactive) and the IC50 [2] is reported as > 100 µM (not active).
With `CS(=O)(=O)N(Cc1cc2ccccc2nc1O)C1CCCCC1` the EC50 [3] was > 20 µM (not active), the EC50 [4] was > 20 µM (not active) and the AC50 [5] was 39.8 µM (inconclusive).
For `CC(=O)N1CC[n+]2c(-c3ccc([N+](=O)[O-])cc3)csc21`, the IC50 [6] was > 100 µM (inactive) and the IC50 [7] was 13.3 µM (active).
For `O=C(CCS(=O)(=O)c1ccc(F)cc1)Nc1nnc(-c2cccs2)o1`, the CC50 [8] was 24.3 µM (active).
In the case of `COc1ccc(NC(=O)CCCN2C(=O)/C(=C\c3ccco3)SC2=S)cc1`, the IC50 [1] is reported as > 25 µM (inactive), the IC50 [2] is reported as > 100 µM (not active) and the CC50 [9] is reported as > 40 µM (active). The CC50 [10] was 16 µM (active) and the IC50 [11] was 23.4 µM (active).
With `O=C1N/C(=N\c2ccc3ccccc3c2)S/C1=C/c1ccco1` the IC50 [12] was 14 µM (active).
In the case of `CCOc1ccc(N2C(=O)/C(=C\c3ccc(OC)c(O)c3)S(=O)(=O)C2c2cccc([N+](=O)[O-])c2)cc1` (centres undefined), the IC50 [13] is reported as > 100 µM (active), the AC50 [14] is reported as 10.2 µM (active) and the EC50 [15] is reported as 6.38 µM (active).
For `CCCCNC(=O)c1sc(=S)n2c1[nH]c(=O)c1ccccc12`, the EC50 [16] was 11.2 µM (active), the IC50 [17] was 79.6 µM (active) and the EC50 [18] was 13.1 µM (active). For the same molecule, the IC50 [19] was 18.8 µM (active) and the Ki [20] was 19.6 µM (inactive).
With `Cc1cc(C)c(N/C=C2/C(=O)N(c3nccs3)C(=O)c3ccccc32)c(C)c1` the CC50 [8] was > 40 µM (active).
For `CCCc1nc2oc3c(NCCOCCO)ncnc3c2c2c1COC(C)(C)C2`, the IC50 [19] was 12.4 µM (active).
In the case of `Cc1nn(C)c(C)c1NC(=O)CCCSc1nc(-c2ccco2)cc(C(F)(F)F)n1`, the CC50 [8] is reported as > 40 µM (active).
For `Cn1cccc1/C=N/n1c(S)nnc1-c1ccccc1`, the IC50 [6] was > 100 µM (inactive) and the IC50 [7] was 1.78 µM (active).
In the case of `COc1ccccc1/C=C/C=N/n1c(S)nnc1-c1ccccn1`, the IC50 [6] is reported as > 100 µM (inactive) and the IC50 [7] is reported as 2.67 µM (active).

Source: ChEMBL document CHEMBL1201862, “PubChem BioAssay data set” (2004)
